Results from paper PMC11062899, “De novo development of small cyclic peptides that are orally bioavailable” (Nature Chemical Biology, 2023).
Several values for one entry are separate records, joined by “and”; a condition that tells them apart may be missing. Equal entries are not always repeated. Where two headings read alike, the source gives them in different places.

Columns and labels:
[1] = Peptide stability in simulated intestinal fluid (SIF); type: in vitro ADME, porcine; parameters: remaining at 8 h: dose or concentration left out as unconfirmed; conditions: pH 6.8
Outline: (§1)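 Peptide from a 1 mM DMSO stock was added to fluid pre-warmed at 37 °C. SGF was pH 1.2 NaCl with porcine pepsin (0.32 g per 100 ml), and SIF was pH 6.8 potassium phosphate with porcine pancreatin (1 g per 100 ml). Supernatant peptide was quantified by LC–MS, with residual expressed as T1/T0.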

porcine pancreatin = test: as above; type: in vitro ADME; parameters: remaining at 8 h: dose or concentration left out as unconfirmed; conditions: after 8 h vs 0 h (TIC); single replicates R1-R3
Outline: as §1

human α-thrombin = human α-thrombin (Homo sapiens, UniProt P00734); test: Protease inhibition, Ki for human α-thrombin (fluorogenic substrate Z-Gly-Gly-Arg-AMC); type: biochemical; conditions: human alpha thrombin; for Slope normalized to DMSO (proteolytic substrate cleavage over time): replicates R1-R3
Outline: (§2)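 Ki derived through Cheng–Prusoff from IC50s (four-parameter logistic fit) against activity of peptide-free controls. Product fluorescence was read every 3 min over 30 min at 25 °C, substrate Z-Gly-Gly-Arg-AMC at 50 μM. Enzyme was 2 nM human or 3 nM rat α-thrombin, pH 7.4 buffer.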

rat α-thrombin = target: T1, rat α-thrombin (Rattus norvegicus, UniProt P18292); test: Protease inhibition, Ki for rat α-thrombin (fluorogenic substrate Z-Gly-Gly-Arg-AMC); type: biochemical; conditions: rat alpha thrombin; for Slope normalized to DMSO (proteolytic substrate cleavage over time): replicates R1-R3
T1 construct: rat α-thrombin (Molecular Innovations) were used at final concentrations of 2 nM and 3 nM; purchased Molecular Innovations
Outline: as §2

porcine pepsin = target: T2, porcine pepsin (Sus scrofa, UniProt P00791); test: Peptide stability in simulated gastric fluid (SGF); type: in vitro ADME
T2 construct: 0.32 g of porcine pepsin (Sigma-Aldrich, P7125) was dissolved under gentle agitation; purchased Sigma-Aldrich P7125
T2 sequence (P00791 60-385): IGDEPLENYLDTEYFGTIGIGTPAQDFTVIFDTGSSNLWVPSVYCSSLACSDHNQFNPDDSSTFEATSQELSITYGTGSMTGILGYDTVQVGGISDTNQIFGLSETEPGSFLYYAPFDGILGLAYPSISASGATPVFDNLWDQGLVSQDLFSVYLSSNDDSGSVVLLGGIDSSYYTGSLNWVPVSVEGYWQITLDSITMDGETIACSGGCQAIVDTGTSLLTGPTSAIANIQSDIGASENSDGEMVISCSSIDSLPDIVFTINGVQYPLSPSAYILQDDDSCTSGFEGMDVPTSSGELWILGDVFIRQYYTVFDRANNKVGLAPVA
Outline: as §1

[2] = Passive artificial membrane permeability (PAMPA)

O=C1C[C@H]2CCCN2C(=O)[C@H](Cc2ccccc2)NC(=O)[C@@H](NC(=O)c2ccc(Cl)s2)CCCSCc2cccc(n2)CSCCN1 [compound 35]
remaining at 8 h ([1]; pig, after 8 h vs 0 h (TIC), average of R1-R3, read-out: SIF stability, Residual peptide Average): 31.4%
remaining at 8 h ([1]; simulated gi fluid, 8 h, 37 °C, read-out: Proteolytic stability: SIF (8 h) % remaining): 31 ± 3%
SIF stability, Residual peptide (porcine pancreatin): 32.04 and 28.68 and 33.58
Ki (human α-thrombin; average of R1-R3, read-out: Ki Average, human alpha thrombin inhibition): 62.8 nM
Slope normalized to DMSO (proteolytic substrate cleavage over time) (human α-thrombin; peptide 1.02E-03 uM): 93.6 and 100.9 and 97.6
Slope normalized to DMSO (proteolytic substrate cleavage over time) (human α-thrombin; peptide 1.04E+00 uM): 8.6 and 16.9 and 12.9
Slope normalized to DMSO (proteolytic substrate cleavage over time) (human α-thrombin; peptide 1.27E-04 uM): 93.4 and 102.6 and 100.9
Slope normalized to DMSO (proteolytic substrate cleavage over time) (human α-thrombin; peptide 1.30E-01 uM): 39.5 and 49.3 and 44.8
Slope normalized to DMSO (proteolytic substrate cleavage over time) (human α-thrombin; peptide 1.59E-05 uM): 106.2 and 101.5 and 96.8
Slope normalized to DMSO (proteolytic substrate cleavage over time) (human α-thrombin; peptide 1.63E-02 uM): 75.0 and 77.8 and 78.6
Slope normalized to DMSO (proteolytic substrate cleavage over time) (human α-thrombin; peptide 1.67E+01 uM): -7.7 and 7.5 and 5.3
Slope normalized to DMSO (proteolytic substrate cleavage over time) (human α-thrombin; peptide 2.03E-03 uM): 88.5 and 91.4 and 92.0
Slope normalized to DMSO (proteolytic substrate cleavage over time) (human α-thrombin; peptide 2.08E+00 uM): 6.1 and 11.4 and 10.4
Slope normalized to DMSO (proteolytic substrate cleavage over time) (human α-thrombin; peptide 2.54E-04 uM): 95.8 and 99.6 and 97.3
Slope normalized to DMSO (proteolytic substrate cleavage over time) (human α-thrombin; peptide 2.60E-01 uM): 30.6 and 32.4 and 32.2
Slope normalized to DMSO (proteolytic substrate cleavage over time) (human α-thrombin; peptide 3.18E-05 uM): 97.7 and 98.2 and 93.3
Slope normalized to DMSO (proteolytic substrate cleavage over time) (human α-thrombin; peptide 3.26E-02 uM): 69.6 and 73.9 and 66.3
Slope normalized to DMSO (proteolytic substrate cleavage over time) (human α-thrombin; peptide 3.33E+01 uM): 2.9 and 7.3 and 3.8
Slope normalized to DMSO (proteolytic substrate cleavage over time) (human α-thrombin; peptide 4.07E-03 uM): 82.9 and 85.6 and 85.5
Slope normalized to DMSO (proteolytic substrate cleavage over time) (human α-thrombin; peptide 4.17E+00 uM): 2.6 and 6.0 and 6.1
Slope normalized to DMSO (proteolytic substrate cleavage over time) (human α-thrombin; peptide 5.09E-04 uM): 91.0 and 91.5 and 96.2
Slope normalized to DMSO (proteolytic substrate cleavage over time) (human α-thrombin; peptide 5.21E-01 uM): 17.9 and 15.7 and 18.4
Slope normalized to DMSO (proteolytic substrate cleavage over time) (human α-thrombin; peptide 6.36E-05 uM): 96.3 and 98.6 and 101.5
Slope normalized to DMSO (proteolytic substrate cleavage over time) (human α-thrombin; peptide 6.51E-02 uM): 47.1 and 63.8 and 53.5
Slope normalized to DMSO (proteolytic substrate cleavage over time) (human α-thrombin; peptide 6.67E+01 uM): 2.7 and 9.5 and 7.0
Slope normalized to DMSO (proteolytic substrate cleavage over time) (human α-thrombin; peptide 7.95E-06 uM): 96.2 and 102.7 and 103.6
Slope normalized to DMSO (proteolytic substrate cleavage over time) (human α-thrombin; peptide 8.14E-03 uM): 70.3 and 73.9 and 78.9
Slope normalized to DMSO (proteolytic substrate cleavage over time) (human α-thrombin; peptide 8.33E+00 uM): 3.3 and 5.4 and 3.6
IC50 (human α-thrombin; single replicates R1-R3, read-out: IC50, human alpha thrombin inhibition): 77.8 nM and 89.4 nM and 77.2 nM
Ki (human α-thrombin; single replicates R1-R3, read-out: Ki, human alpha thrombin inhibition): 59.9 nM (2×) and 68.9 nM (2×) and 59.5 nM (2×)
Ki (rat α-thrombin; average of R1-R3, read-out: Ki Average, rat alpha thrombin inhibition): 18.4 nM
Slope normalized to DMSO (proteolytic substrate cleavage over time) (rat α-thrombin; peptide 1.02E-03 uM): 95.3 and 93.5 and 90.4
Slope normalized to DMSO (proteolytic substrate cleavage over time) (rat α-thrombin; peptide 1.04E+00 uM): 8.6 and 8.7 and 5.7
Slope normalized to DMSO (proteolytic substrate cleavage over time) (rat α-thrombin; peptide 1.27E-04 uM): 96.6 and 98.1 and 94.9
Slope normalized to DMSO (proteolytic substrate cleavage over time) (rat α-thrombin; peptide 1.30E-01 uM): 29.1 and 30.9 and 27.9
Slope normalized to DMSO (proteolytic substrate cleavage over time) (rat α-thrombin; peptide 1.59E-05 uM): 99.9 and 100.8 and 98.0
Slope normalized to DMSO (proteolytic substrate cleavage over time) (rat α-thrombin; peptide 1.63E-02 uM): 66.4 and 67.5 and 64.5
Slope normalized to DMSO (proteolytic substrate cleavage over time) (rat α-thrombin; peptide 1.67E+01 uM): 5.5 and 6.4 and 3.4
Slope normalized to DMSO (proteolytic substrate cleavage over time) (rat α-thrombin; peptide 2.03E-03 uM): 85.0 and 86.2 and 80.9
Slope normalized to DMSO (proteolytic substrate cleavage over time) (rat α-thrombin; peptide 2.08E+00 uM): 8.2 and 8.0 and 6.0
Slope normalized to DMSO (proteolytic substrate cleavage over time) (rat α-thrombin; peptide 2.54E-04 uM): 94.8 and 90.7 and 91.8
Slope normalized to DMSO (proteolytic substrate cleavage over time) (rat α-thrombin; peptide 2.60E-01 uM): 20.1 and 21.2 and 15.6
Slope normalized to DMSO (proteolytic substrate cleavage over time) (rat α-thrombin; peptide 3.18E-05 uM): 99.5 and 101.3 and 96.2
Slope normalized to DMSO (proteolytic substrate cleavage over time) (rat α-thrombin; peptide 3.26E-02 uM): 58.6 and 59.5 and 55.9
Slope normalized to DMSO (proteolytic substrate cleavage over time) (rat α-thrombin; peptide 3.33E+01 uM): 4.9 and 6.5 and 3.7
Slope normalized to DMSO (proteolytic substrate cleavage over time) (rat α-thrombin; peptide 4.07E-03 uM): 77.2 and 73.8 and 74.9
Slope normalized to DMSO (proteolytic substrate cleavage over time) (rat α-thrombin; peptide 4.17E+00 uM): 6.8 (2×) and -8.2
Slope normalized to DMSO (proteolytic substrate cleavage over time) (rat α-thrombin; peptide 5.09E-04 uM): 92.2 and 90.6 and 87.0
Slope normalized to DMSO (proteolytic substrate cleavage over time) (rat α-thrombin; peptide 5.21E-01 uM): 12.0 and 12.9 and 10.7
Slope normalized to DMSO (proteolytic substrate cleavage over time) (rat α-thrombin; peptide 6.36E-05 uM): 97.8 and 99.0 and 94.4
Slope normalized to DMSO (proteolytic substrate cleavage over time) (rat α-thrombin; peptide 6.51E-02 uM): 36.9 and 38.0 and 37.1
Slope normalized to DMSO (proteolytic substrate cleavage over time) (rat α-thrombin; peptide 6.67E+01 uM): 5.7 and 6.9 and 3.2
Slope normalized to DMSO (proteolytic substrate cleavage over time) (rat α-thrombin; peptide 7.95E-06 uM): 102.6 and 104.4 and 98.4
Slope normalized to DMSO (proteolytic substrate cleavage over time) (rat α-thrombin; peptide 8.14E-03 uM): 67.4 and 67.8 and 64.3
Slope normalized to DMSO (proteolytic substrate cleavage over time) (rat α-thrombin; peptide 8.33E+00 uM): 6.5 and 6.4 and -9.8
IC50 (rat α-thrombin; single replicates R1-R3, read-out: IC50, rat alpha thrombin inhibition): 31.1 nM and 30.7 nM and 37.8 nM
Ki (rat α-thrombin; single replicates R1-R3, read-out: Ki, rat alpha thrombin inhibition): 17.2 nM (2×) and 17 nM (2×) and 20.9 nM (2×)
SGF stability, Residual peptide Average (porcine pepsin; after 8 h vs 0 h (TIC), average of R1-R3): 98.71
SGF stability, Residual peptide (porcine pepsin; after 8 h vs 0 h (TIC), single replicates R1-R3): 102.19 and 96.66 and 97.27
remaining at 8 h (porcine pepsin; simulated gi fluid, 8 h, 37 °C, pH 1.2, read-out: Proteolytic stability: SGF (8 h) % remaining): 99 ± 3%
PAMPA permeability: % permeability ([2]; 50 μM, 12–18 h, acceptor concentration relative to equilibrium): 21 ± 8%
Papp at 50 μM ([2]; PAMPA, pH 7.4): 2.24 ×10⁻⁶ cm/s
Permeability% Average ([2]; top well sample vs theoretical equilibrium sample (TIC), average of R1-R3): 21.1%
Permeability% ([2]; top well sample vs theoretical equilibrium sample (TIC), single replicates R1-R3): 16.62% and 15.98% and 30.80%
